In ChEMBL document CHEMBL1126475, “Synthesis of a potent and selective non-peptide CCK-B/gastrin receptor antagonist tritiated ligand” (Bioorg Med Chem Lett, 1993):

Assays:
Rattus norvegicus = species: Rattus norvegicus; test: Antagonistic activity against excitations of rat ventromedial hyphalamic neurones evoked in CCK-B; assay type: functional
[1] = Tested for dissociation constant of the compound; Value ranges from 0.1-0.3; assay type: ADME
[2] = target: T1, Cholecystokinin receptor type A (Rattus norvegicus, UniProt P30551); test: The compound was evaluated for the inhibition of binding of [125I]Bolton-Hunter CCK-8 to Cholecystokinin type A receptor in the rat pancreas.
T1 sequence (P30551 whole entry): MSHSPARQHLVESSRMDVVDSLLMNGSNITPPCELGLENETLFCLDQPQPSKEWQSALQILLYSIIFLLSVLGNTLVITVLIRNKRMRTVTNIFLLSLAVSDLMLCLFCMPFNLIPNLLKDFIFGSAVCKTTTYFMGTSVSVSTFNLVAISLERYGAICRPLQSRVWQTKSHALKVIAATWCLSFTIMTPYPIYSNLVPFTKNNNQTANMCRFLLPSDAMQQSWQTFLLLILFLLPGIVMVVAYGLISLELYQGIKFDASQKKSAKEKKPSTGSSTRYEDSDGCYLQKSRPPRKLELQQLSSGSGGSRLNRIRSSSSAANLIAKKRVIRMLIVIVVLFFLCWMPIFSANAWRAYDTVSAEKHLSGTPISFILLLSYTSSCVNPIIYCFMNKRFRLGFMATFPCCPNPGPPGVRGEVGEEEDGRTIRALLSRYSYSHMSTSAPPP

[3] = target: T2, Gastrin/cholecystokinin type B receptor (Rattus norvegicus) (UniProt P30553); test: Specific activity for Cholecystokinin type B receptor in 10e5 AR42J cells was determined for the compound.; assay type: cell-based; conditions: AR-42J
T2 sequence (whole entry): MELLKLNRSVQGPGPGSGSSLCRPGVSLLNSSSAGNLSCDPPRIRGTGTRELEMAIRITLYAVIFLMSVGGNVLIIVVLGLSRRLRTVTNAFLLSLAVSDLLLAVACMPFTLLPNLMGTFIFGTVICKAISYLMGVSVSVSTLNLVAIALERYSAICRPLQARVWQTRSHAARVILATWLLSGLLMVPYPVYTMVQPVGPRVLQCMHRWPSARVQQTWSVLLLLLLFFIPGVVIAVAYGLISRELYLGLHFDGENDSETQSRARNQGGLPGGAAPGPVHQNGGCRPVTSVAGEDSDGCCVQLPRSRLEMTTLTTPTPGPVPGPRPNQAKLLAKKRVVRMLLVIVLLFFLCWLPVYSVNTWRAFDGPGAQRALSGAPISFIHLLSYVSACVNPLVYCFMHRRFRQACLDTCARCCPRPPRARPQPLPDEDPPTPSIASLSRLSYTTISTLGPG

[4] = target: T3, Gastrin/cholecystokinin type B receptor (Mus musculus, UniProt P56481); test: The compound was evaluated for the inhibition of binding of [3H]-PD 140376 to Cholecystokinin type B receptor in mouse cortex.
T3 sequence (P56481 whole entry): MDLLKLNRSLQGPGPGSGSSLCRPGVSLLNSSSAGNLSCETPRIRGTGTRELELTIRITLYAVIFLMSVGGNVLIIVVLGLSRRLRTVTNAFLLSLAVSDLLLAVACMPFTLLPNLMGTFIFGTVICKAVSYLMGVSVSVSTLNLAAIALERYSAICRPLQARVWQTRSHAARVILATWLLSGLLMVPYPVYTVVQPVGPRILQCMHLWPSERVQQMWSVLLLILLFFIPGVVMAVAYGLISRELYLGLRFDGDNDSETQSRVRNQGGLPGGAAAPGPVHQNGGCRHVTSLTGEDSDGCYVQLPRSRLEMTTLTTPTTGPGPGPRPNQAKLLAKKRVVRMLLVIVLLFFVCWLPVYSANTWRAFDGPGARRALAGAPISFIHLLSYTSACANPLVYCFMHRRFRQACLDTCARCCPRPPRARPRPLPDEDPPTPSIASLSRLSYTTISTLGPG

| SMILES | Ke (Rattus norvegicus) [nM] | Kd [1] [nM] | Ki [2] [nM] | Bmax (fmol/10^5 cells) [3] | Ki [4] [nM] |
| --- | --- | --- | --- | --- | --- |
| CSCC[C@H](NC(=O)[C@H](Cc1c[nH]c2ccccc12)NC(=O)CCNC(=O)OC(C)(C)C)C(=O)N[C@@H](CC(=O)O)C(=O)N[C@@H](Cc1ccccc1)C(N)=O [PENTAGASTRIN] | 1.4 |  |  |  |  |
| C[C@](Cc1c[nH]c2ccccc12)(NC(=O)OC1C2CC3CC(C2)CC1C3)C(=O)N[C@@H](CC(=O)O)Cc1ccc(N)cc1 (stereo not given in full) |  | 0.1 | 350 | 31 | 0.2 |
